The values that follow come from patent US8372408B2, “Use of Phaeodactylum algae extract for depigmenting the skin” (LVMH Recherche, priority 2007, dated 2013).

Residues, ends and D or L forms follow the SMILES beside them. *: point of attachment. Cbz = O=C(OCc1ccccc1)*

The subject of assay [1] is tyrosinase of MNT-1 melanocytes. As to the kind of experiment: Measurement of the tyrosinase (dopa-oxidase) activity in lyzates of treated MNT1 cells. The conditions noted are these: for Tyrosinase activity at 72 hours: dopa-oxidase activity at 475 nm, MNT1 lyzed 72 hours after treatment, palmitic or linoleic acid 25 μM, Phaeodactylum 5 μg/ml, Mg132 120 nM where stated. Format: cell-based, human. On the procedure:
2.1D: Measurement of the tyrosinase activity
The assay is based on measuring the dopa-oxidase activity of tyrosinase. The principle of the assay is based on the detection of dopachrome, which absorbs at 475 nm on FLUOstar (BMG)
Materials: • Lysis buffer • Substrate: L-DOPA (Sigma, D-9628, MW 197.2) at 10 mM in PBS, prepared extemporaneously due to the autoxidation of L-Dopa.
Human melanocytes in culture were treated with 25 μM of linoleic acid (±120 nM Mg132) or 25 μM of palmitic acid (±120 nM Mg132) or 5 μg/ml of Phaeodactylum (±120 nM Mg132) in MNT1 medium containing 1% BSA, 50 μM vitamin E and 1 mM vitamin C. The melanocytes were recovered and lyzed 72 hours after treatment. 50 μg of extract are then incubated with 1 mM of […] for one hour at 37° C. Measurement of the tyrosinase activity is performed at 475 nm every 2 minutes using a microplate reader thermostatically maintained at 37° C.
The Dopa-oxidase activity is obtained as OD/min/mg of protein. The blank is prepared with lysis buffer in the presence of L-DOPA.

For assay [2], the system named is 20S and 26S forms of the proteasome in MNT-1 melanocyte line. Put plainly: Anti-proteasome western blot of treated MNT1 cells. The format is cell-based, human. The conditions noted are these: lysis of MNT-1 24 hours and 72 hours after treatment, FIGS. 2A and 2B. The protocol: (§1) 2.2 Treatment of MNT1 in Order to Assay the Proteasome, the Ubiquitin Proteins and the Tyrosinase by Western Blotting
(§2) 10^6 MNT1 cells/dish 35 mm in diameter, in quadruplicate
(§3) Treatment on D1 • Linoleic acid 25 μM • Palmitic acid 25 μM • Phaeodactylum 5 μg/ml
(§4) +1% bovine serum albumin (BSA)+Vitamin E (Vitamin E) 50 μM+Vitamin C (Vitamin C) 1 mM • Linoleic acid 25 μM • Palmitic acid 25 μM • Phaeodactylum 5 μg/ml
(§5) Preparation of the Lyzates on D2, D3 and D4
(§6) Recovery of the cell lawn in 150 μl of Laemmli 2× buffer+1% DTT (10 mM) by scraping.
Electrophoresis of the proteins is performed in a polyacrylamide minigel 1 mm to […] thick, under denaturing and reducing conditions, in batch buffer according to the Laemmli method (1970). […]
(§7) The bands are quantified by means of the Gels Analysts 3.01 software.
In parallel, using specific antibodies, the 20S and 26S forms of the proteasome were quantified by western blotting.
For the purpose of determining the cause of this activation of the peptidase activities of the proteasome, we evaluated via the western blotting technique the amount of proteasome in the homogenates obtained from the lysis of MNT-1 24 hours and 72 hours after their treatment with extracts of the alga Phaeodactylum tricornutum, with fatty acids, or with a proteasome-dependent proteolysis inhibitor Mg132).

Assay [3] deals with ubiquitin proteins in MNT-1 melanocyte line. Put plainly: Anti-ubiquitin western blot of treated MNT1 cells. The format is cell-based, human. The conditions noted are these: 24 hours or 72 hours after treatment, FIG. 3A, 3B. On the procedure: as §1, §2, §3, §4, §5, §6
Electrophoresis of the proteins is performed in a polyacrylamide minigel 1 mm to […] thick, under denaturing and reducing conditions, in batch buffer according to the Laemmli method (1970). The gels containing 12% T, 2.7% C allow separation of the low molecular weight proteins ranging from 20 to 120 kDa. The gels containing 8% T; 2.7% C allow separation of the high molecular weight proteins from 35 to 250 kDa.
Next, this membrane is placed in contact with the primary antibody diluted to the optimum concentration in PBS-T with or without 5% milk (m/v) depending on the antibody, for 1 hour with stirring at room temperature or overnight at 4° C.
Under the action of peroxidase and an amplifier, the luminol is oxidized and goes into a transient excited state. […]
as §7

Assay [4] has as its system tyrosinase in B16F10 cells. The conditions noted are these: cited from earlier work; for proteasome-dependent degradation of tyrosinase: B16F10 cells, Ando H. et al., J. Biol. Chem. (2004); for amount of melanin: melanocyte culture, previous study.

`CC(C)C[C@@H](C=O)NC(=O)[C@H](CC(C)C)NC(=O)[C@H](CC(C)C)NC(=O)OCc1ccccc1` [Control + Mg132, Z-Leu-Leu-Leu-CHO] (Cbz-Leu-Leu-Leu-aldehyde): the “Tyrosinase activity at 72 hours” value in assay [1] came out at 18.35 ± 1.55 OD/min.
For the compound `CCCCC/C=C\C/C=C\CCCCCCCC(=O)O` [Linoleic acid], the “amount of proteasome (expression or distribution of the 20S and 26S forms)” value in assay [2] is reported as “does not modify”. In addition, in assay [1] (72 hours after treatment of MNT-1 melanocytes, FIG. 5), the “tyrosinase activity, change in words” value is recorded as “significant decrease”. The “Tyrosinase activity at 72 hours” value in assay [1] turned out to be 9.65 ± 2 OD/min. The “level of ubiquitin proteins” value in assay [3] is “not affected”. In assay [4], the “proteasome-dependent degradation of tyrosinase” value is “stimulated” and the amount of melanin entry was “decrease”.
As for `CCCCCCCCCCCCCCCC(=O)O` [Palmitic acid], the “Tyrosinase activity at 72 hours” value in assay [1] stood at 18.75 ± 1.9 OD/min. Also, in assay [4], the “proteasome-dependent degradation of tyrosinase” value is “reduced” and the amount of melanin result is on record as “inverse effect”.
